{"source": "patent US6448283B1", "about": "“Methods for preventing/treating damage to sensory hair cells and cochlear neurons” (Cephalon, Inc., priority 1998, dated 2002)", "key": {"[1]": {"test_system": "outer sensory hair cells of the organ of Corti", "experiment": "Cytocochleogram counts of lost outer sensory hair cells after noise trauma (Example 1)", "assay_type": "in vivo, guinea pig", "conditions": "day 21", "experimental": "Baseline hearing of 8 pigmented guinea pigs (200-300 g) was tested by ABR as described below. ABR is a measure of hearing function. Four animals were treated with daily subcutaneous (s.c.) injections of the compound of Formula II, 1 mg/kg, starting 24 hours prior to noise trauma and lasting until 21 days after exposure to the noise trauma. Four animals served as controls and received only vehicle (the fourth animal died under anaesthesia). All the animals were exposed to traumatic octave band noise, center frequency 4.0 kHz, 125 dB SPL (sound pressure level) for 105 min.\nAfter the treatment period of 21 days and measurement of ABRs, the animals were sacrificed and the temporal bones fixed by 4% PFA (paraformaldehyde) through perilymphatic perfusion. The left cochleas were dissected for surface specimens and the number of sensory hair cells in each auditory organ was evaluated by cytocochleograms. The upper halves of the cochleas were processed for cytocochleograms without embedding by staining cochlear whole mounts with rhodamine phalloidine (Molecular Probes, Eugene, Ore.) in PBS containing 0.25% Triton X-100 overnight at 4° C and mounted in Vectashield (Vector). Phalloidin is a specific marker for cellular F-actin. Basal halves of the cochleas were embedded in\nEpon and processed for cytocochleograms. Selected sections of Epon-embedded cochlear turns were processed for fine structural study by electron microscopy."}, "[2]": {"test_system": "hair cells of the organ of Corti", "experiment": "TUNEL staining of apoptotic hair cells in noise-exposed cochleas", "assay_type": "in vivo, guinea pig", "conditions": "first 6 days after noise exposure", "experimental": "Adult Dunkin-Hartley female guinea pigs (weight 300-500 g) were exposed, 4 animals at a time, to octave band noise, with a center frequency of 4.0 kHz, 120 dB SPL for 6 hr as described in Example 1. Fragmented hair cell nuclei were assessed from noise-exposed cochleas immediately and 1, 2, 4, 6, 8 and 14 days after noise exposure. Noise-exposed and nonexposed guinea pigs were decapitated under deep anesthesia and inner ears were perilymphatically perfused with 4% paraformaldehyde in PBS, and processed for […] paraffin-embedded sections (Ylikoski et al., Hear Res 65:69-78, 1993; Ylikoski et al., Hear Res 124:17-26, 1998). TUNEL-staining was performed as described below. DNA fragmentation was also verified by DAPI nuclear counterstain (see below). Further, trauma-induced nuclear fragmentation was verified by morphological analysis of contralateral cochleas that were perilymphatically fixed with 2.5% glutaraldehyde in 0.1M phosphate buffer, pH 7.4, postfixed with 1% osmium tetroxide, embedded in epoxy resin, and prepared for surface preparations (see below). Selected cochlear segments were then cut in transverse and horizontal planes to semi-thin ([…]) sections that were stained with 1% toluidine blue. Analysis was done under an Olympus Provis microscope equipped with Nomarski optics. […]"}, "[3]": {"test_system": "vestibular hair cells (ampullary cristae)", "experiment": "Hair cell counts in ampullary cristae after gentamicin treatment", "assay_type": "in vivo, guinea pig", "experimental": "Two experimental groups were formed. Group 1 guinea pigs served as control and were treated with gentamicin only. The animals were injected s.c. with gentamicin at 120 mg/kg body weight, once daily for 14 days. Three guinea pigs (yielding a total of 6 inner ears) were included in this group. The animals were decapitated 30 days after the start of the injections.\nGroup 2 guinea pigs were treated with gentamicin plus Formula II. The animals were injected s.c. with GM at 120 mg/kg body weight, plus Formula II at 1 mg/kg, once daily for 14 days. Formula II treatment started 1 day before GM injections. Formula II treatment was continued for 28 or 29 days. Four guinea pigs (8 inner ears) were included in this group. The animals were decapitated 30 days after the start of GM injections.\nGuinea pigs were decapitated under deep anaesthesia and the inner ears were perilymphatically fixed and immersed with 2.5% glutaraldehyde in 0.1 M phosphate buffer (pH 7.4), postfixed with 1% osmium tetroxide, and embedded in Epon. Cochleas were processed for cytocochleograms (Ylikoski, Acta Otolaryngol (Stockh) Suppl 326:5-20, 1975). The separately dissected and Epon-embedded vestibular organs were cut for 1 μm-thick sections. Every 25th section was collected onto slides and stained with 1% toluidine blue. […] Two control (GM-treated) and 3 Formula II plus GM-treated ampullae were used for analysis. The presence of cell nuclei in the sensory layer (upper half) of the sensory epithelium was regarded as the presence of hair cells. Supporting cell nuclei were clearly distinguished from hair cells by their position (lower part) in the epithelium and by toluidine blue that stains the hair cells weaker than the supporting cells. Hair cell loss was measured by comparing the number of hair cell nuclei in the sensory layer to the number of […]."}, "[4]": {"test_system": "noise-exposed guinea pigs", "experiment": "ABR threshold shifts, delayed dosing after noise trauma", "assay_type": "in vivo, guinea pig", "experimental": "Guinea pigs were exposed to 120 dB, 4 kHz noise for 6 hr. The compound of Formula II was administered beginning 2 hours to 1 day prior to noise trauma, or 1 day after noise trauma, or 4 days after noise trauma. Dosing continued for 2 weeks after noise exposure. As described above, cochleas were prepared and numbers of preserved and lost inner hair cells (IHCs) and outer hair cells of different rows (OHC1, OHC2, OHC3) were counted 2 weeks post noise trauma.\nABRs were determined 1 day before noise trauma (baseline values) and 2 weeks post noise trauma. […] Thresholds were determined at frequencies 2, 4, 8, 16 and 32 kHz from a set of responses at varying intensities with 5 dB intervals and 1000 sweeps near the threshold. ABRs were measured with System II hardware and BioSig software. Ketamine (40 mg/kg) and xylazine (10 mg/kg) were used for anaesthesia."}, "[5]": {"test_system": "hair cells of cochlear explants", "experiment": "TUNEL staining of hair cells in neomycin-exposed cochlear explants", "assay_type": "cell-based, rat", "conditions": "500 nM Formula II coincubated with neomycin; n=5 explants", "experimental": "Six, 12 and 24 hr after adding 100 μM neomycin to the medium, cochlear cultures were fixed with 4% paraformaldehyde in PBS for 30 min. The specimens were prepared for 5 um-thick paraffin sections. They were stained with a TUNEL-kit, mounted in Vectashield containing DAPI nuclear counterstain (Vector, Burlingame, Calif.), and viewed under an Olympus Provis microscope (Tokyo, Japan) using epifluorescence. In addition to TUNEL-staining, DNA fragmentation was verified under UV illumination using DAPI counterstain."}, "[6]": {"test_system": "motorneurons", "conditions": "by inhibiting the JNK signaling pathway; Maroney et al., 1998; cited from earlier work"}, "[7]": {"conditions": "single animal, 1 mg/kg s.c. daily, noise 125 dB SPL 105 min, 1 mg/kg"}}, "note": "Several values for one entry are separate records, joined by “and”; a condition that tells them apart may be missing. Equal values may be shown once.", "data": [{"smiles": "CCSCc1ccc2c(c1)c1c3c(c4c5cc(CSCC)ccc5n5c4c1n2C1C[C@](O)(C(=O)OC)[C@]5(C)O1)CNC3=O", "note": "[Formula II]", "values": [{"measurement": "% OHC LOST, MEAN", "setting": "[1]; mean of 4 Formula II animals", "result": 6.1, "unit": "%"}, {"measurement": "LOST OUTER SENSORY CELLS (OHC): OCH1, MEAN", "setting": "[1]; mean of 4 Formula II animals", "result": 133}, {"measurement": "LOST OUTER SENSORY CELLS (OHC): OCH2, MEAN", "setting": "[1]; mean of 4 Formula II animals", "result": 107}, {"measurement": "LOST OUTER SENSORY CELLS (OHC): OCH3, MEAN", "setting": "[1]; mean of 4 Formula II animals", "result": 143}, {"measurement": "TOTAL OHC LOST, MEAN", "setting": "[1]; mean of 4 Formula II animals", "result": 383}, {"measurement": "% OHC LOST", "setting": "[1]; [7]", "result": "3.1% and 0.8% and 1.4% and 19.0%"}, {"measurement": "LOST OUTER SENSORY CELLS (OHC): OCH1", "setting": "[1]; [7]", "result": "90 and 19 and 36 and 356"}, {"measurement": "LOST OUTER SENSORY CELLS (OHC): OCH2", "setting": "[1]; [7]", "result": "25 and 3 and 18 and 381"}, {"measurement": "LOST OUTER SENSORY CELLS (OHC): OCH3", "setting": "[1]; [7]", "result": "71 and 27 and 46 and 428"}, {"measurement": "TOTAL OHC LOST", "setting": "[1]; [7]", "result": "186 and 49 and 100 and 1195"}, {"measurement": "amount of apoptotic hair cell loss versus control cochleas", "setting": "[2]", "result": "less"}, {"measurement": "Total number of hair cells", "setting": "[3]; GM + Formula II, single ampulla, all sections counted", "result": "518 and 328 and 620"}, {"measurement": "Hair cells per frame", "setting": "[3]; GM + Formula II, single ampulla, decimal comma", "result": "1,9 and 2,2"}, {"measurement": "protective effect in the ampullae", "setting": "[3]; gentamicin 120 mg/kg plus Formula II 1 mg/kg, relative hair cell loss, n=3 ampullae", "result": 70, "unit": "%"}, {"measurement": "average threshold shift of control animals greater than that of treated animals", "setting": "[4]; Formula II begun prior to the lesion, noise 120 dB 4 kHz 6 hr, 2 weeks post noise", "result": "20-40 dB"}, {"measurement": "ABR threshold shift versus vehicle-treated, noise-exposed controls", "setting": "[4]; Formula II-treated animals, 2 weeks post noise", "result": "less threshold shift at all frequencies tested"}, {"measurement": "ABR threshold shift, delayed administration", "setting": "[4]; administration begun 1 or 4 days after exposure to noise", "result": "Decreased threshold shifts"}, {"measurement": "TUNEL-labeling in hair cells", "setting": "[5]", "result": "prevented"}, {"measurement": "death of motorneurons in vitro", "setting": "[6]", "result": "prevent death of motorneurons in vitro"}]}]}
